Patent US20230372381A1, “COMPOSITIONS AND METHODS UTILIZING PROTEIN INHIBITORS FOR […] INHIBITION AND TREATMENT OF SARS-CoV-2” (Rensselaer Polytechnic Institute, priority 2020, published 2023)
“Also recorded” adds a separate entry of the source. Read-outs that look alike come from different tables or passages of the source.

Tests used:
SARS-CoV-2 [1] = assay: microbe, parasite or virus in culture; format: cell-based
HEK 293T cells = assay: Cytotoxicity in HEK 293T cells; conditions: cytotoxicity, HEK 293T Cells
SARS-CoV-2 [2] = assay: SARS-CoV-2 viral replication assay in Vero E6 cells; format: cell-based
SARS-CoV-2 [3] = assay: Combination antiviral (synergy) assay with remdesivir; format: cell-based; conditions: for Synergy Score: combination with remdesivir, SynergyFinder, ZIP method; for interaction with remdesivir (additive or synergistic): inhibition of SARS-CoV-2 replication in combination with remdesivir
[4] = Cytotoxicity MTT assay in Vero E6 cells; conditions: African green monkey
Experimental: (§1) Cytotoxicity was also performed using the MTT assay (Roche), according to the manufacturer's instructions. Cytotoxicity was performed in uninfected VeroE6 cells with same compound dilutions and concurrent with viral replication assay. All assays were performed in biologically independent triplicates.

SARS-CoV-2 M^pro [5] = molecular target: T1, SARS-CoV-2 M^pro (Severe acute respiratory syndrome coronavirus 2, UniProt P0DTD1); assay: M^pro protease inhibition (FRET assay); format: biochemical; conditions: for Relative M^pro Inhibition: estimated IC50 class
[6] = Cytotoxicity in HEK 293T cells; conditions: human
SARS-CoV-2 PL^pro = SARS-CoV-2 PL^pro (Severe acute respiratory syndrome coronavirus 2, UniProt P0DTD1); assay: PL^pro fluorescence proteolysis assay (zRLRGG/AMC substrate); format: biochemical; conditions: for Relative PL^pro Inhibition: estimated IC50 class
Vero E6 cells = assay: Cytotoxicity MTT assay in Vero E6 cells; conditions: cytotoxicity, Vero E6 Cells
Experimental: as §1

SARS-CoV-2 M^pro [7] = molecular target: T1, SARS-CoV-2 M^pro; assay: M^pro 1D 1H-NMR proteolysis assay; format: biochemical; conditions: 50 μM inhibitor
in vitro [8] = conditions: human
in vitro [9] = conditions: African green monkey
Experimental: as §1

[10] = Severe acute respiratory syndrome coronavirus 2, HEK-293T
[11] = Severe acute respiratory syndrome coronavirus 2, Vero C1008
[12] = Severe acute respiratory syndrome coronavirus 2, viral replication, HEK 293T Cells (hACE2-293T), read-out: IC50
[13] = Severe acute respiratory syndrome coronavirus 2, Vero C1008, viral replication, Vero E6 Cells, read-out: IC50

SMILES: CCCC[C@H](NC(=O)[C@@H]1[C@@H]2[C@H](CN1C(=O)[C@@H](NC(=O)NC1(CS(=O)(=O)C(C)(C)C)CCCCC1)C(C)(C)C)C2(C)C)C(=O)C(=O)NC1CC1 [NAR, narlaprevir]
- IC50 (SARS-CoV-2 [1]; [10]): 15 µM
- CC50 (HEK 293T cells): 72 µM
- IC50 (SARS-CoV-2 [2]; [11]): 7.7 µM
- Synergy Score (SARS-CoV-2 [3]): −3.6
- CC50 [4]: > 20 µM

SMILES: CC[C@@H]1C[C@]1(NC(=O)[C@@H]1C[C@@H]2CN1C(=O)[C@H](C(C)(C)C)NC(=O)OCC(C)(C)CCCCc1cccc3c1CN(C3)C(=O)O2)C(=O)NS(=O)(=O)C1CC1 [VAN, vaniprevir]
- Relative M^pro Inhibition (SARS-CoV-2 M^pro [5]): strong (Strong inhibition corresponds to an estimated IC50 < about 20 μM)
- inhibition of M^pro activity (words) (SARS-CoV-2 M^pro [5]; listed as Vaniprevir): good inhibitor of both M^pro and PL^pro
- inhibition of M^pro activity (words) (SARS-CoV-2 M^pro [5]; listed as vaniprevir): inhibited both M^pro and PL^pro
- IC50 (SARS-CoV-2 [1]; [10]): 3 µM
- CC50 [6]: > 50 µM
- Relative PL^pro Inhibition (SARS-CoV-2 PL^pro): strong (Strong inhibition corresponds to an estimated IC50 < about 20 μM)
- inhibition of PL^pro protease activity (words) (SARS-CoV-2 PL^pro; listed as Vaniprevir): good inhibitor of both M^pro and PL^pro
- inhibition of PL^pro protease activity (words) (SARS-CoV-2 PL^pro; listed as vaniprevir): did inhibit PL^pro protease activity
- IC50 (SARS-CoV-2 [2]; [11]): 6.2 µM
- Synergy Score (SARS-CoV-2 [3]): +10.9
- interaction with remdesivir (additive or synergistic) (SARS-CoV-2 [3]): synergistic
- interaction with remdesivir (additive or synergistic) (SARS-CoV-2 [3]; listed as vaniprevir): synergized with remdesivir
- CC50 (Vero E6 cells): 4.3 µM
- M^pro inhibition in the NMR assay (SARS-CoV-2 M^pro [7]): inhibitory activity comparable to telaprevir

SMILES: C=C[C@@H]1C[C@]1(NC(=O)[C@@H]1C[C@@H]2CN1C(=O)[C@H](C(C)(C)C)NC(=O)O[C@@H]1C[C@H]1CCCCCc1nc3ccc(OC)cc3nc1O2)C(=O)NS(=O)(=O)C1CC1.O [GRZ, grazoprevir]
- inhibition of M^pro activity (words) (SARS-CoV-2 M^pro [5]): moderately inhibit; also recorded: inhibited both M^pro and PL^pro
- Relative M^pro Inhibition (SARS-CoV-2 M^pro [5]): moderate (moderate to an estimated IC50 in the range 20-50 μM)
- IC50 (SARS-CoV-2 [1]; viral replication, HEK 293T Cells (hACE2-293T), read-out: IC50): 16.7 µM
- CC50 (HEK 293T cells): > 50 µM
- inhibition of PL^pro protease activity (words) (SARS-CoV-2 PL^pro): did inhibit PL^pro protease activity
- Relative PL^pro Inhibition (SARS-CoV-2 PL^pro): moderate (moderate to an estimated IC50 in the range 20-50 μM)
- IC50 (SARS-CoV-2 [2]; viral replication, Vero E6 Cells, read-out: IC50): 10.8 µM
- Synergy Score (SARS-CoV-2 [3]): +25.0
- interaction with remdesivir (additive or synergistic) (SARS-CoV-2 [3]): synergistic
- interaction with remdesivir (additive or synergistic) (SARS-CoV-2 [3]; listed as grazoprevir): synergized with remdesivir
- CC50 (Vero E6 cells): > 50 µM
- M^pro inhibition in the NMR assay (SARS-CoV-2 M^pro [7]): moderate inhibitors of M^pro

SMILES: CC(=O)Nc1ccc(C)c(C(=O)N[C@H](C)c2cccc3ccccc23)c1 [Compound 6]
- inhibition of M^pro activity (words) (SARS-CoV-2 M^pro [5]): not M^pro
- inhibition of PL^pro protease activity (words) (SARS-CoV-2 PL^pro): specifically inhibits PL^pro
- interaction with remdesivir (additive or synergistic) (SARS-CoV-2 [3]): synergy with remdesivir

SMILES: Cc1cnc(C(=O)N[C@H]2CCCCC/C=C\[C@@H]3C[C@@]3(C(=O)NS(=O)(=O)C3CC3)NC(=O)[C@@H]3C[C@@H](Oc4nc5ccccc5c5ccccc45)CN3C2=O)cn1 [PAR, paritaprevir]
- inhibition of M^pro activity (words) (SARS-CoV-2 M^pro [5]): not M^pro
- Relative M^pro Inhibition (SARS-CoV-2 M^pro [5]): none (none indicates no observed inhibition of protease activity at drug concentrations of 50 μM)
- IC50 (SARS-CoV-2 [1]; [12]): 0.55 µM
- CC50 (in vitro [8]): > 100 µM
- inhibition of PL^pro protease activity (words) (SARS-CoV-2 PL^pro): did inhibit PL^pro protease activity
- Relative PL^pro Inhibition (SARS-CoV-2 PL^pro): moderate (moderate to an estimated IC50 in the range 20-50 μM)
- IC50 (SARS-CoV-2 [2]; [13]): 6 µM
- Synergy Score (SARS-CoV-2 [3]): +17.3
- interaction with remdesivir (additive or synergistic) (SARS-CoV-2 [3]): synergistic
- interaction with remdesivir (additive or synergistic) (SARS-CoV-2 [3]; listed as paritaprevir): synergized with remdesivir
- CC50 (in vitro [9]): > 100 µM

SMILES: CC(C)(C)NC(=O)N[C@H](C(=O)N1C[C@H]2[C@@H]([C@H]1C(=O)NC(CC1CCC1)C(=O)C(N)=O)C2(C)C)C(C)(C)C (stereo partly drawn) [BOC, boceprevir]
- IC50 (SARS-CoV-2 [1]; [12]): 5.4 µM
- CC50 (in vitro [8]): > 50 µM
- IC50 (SARS-CoV-2 [2]; [13]): 19.6 µM
- Synergy Score (SARS-CoV-2 [3]): −7.6
- CC50 (in vitro [9]): > 50 µM

SMILES: C=C[C@@H]1C[C@]1(NC(=O)[C@@H]1C[C@@H](Oc2ncc(OC)c3ccc(Cl)cc23)CN1C(=O)[C@@H](NC(=O)OC(C)(C)C)C(C)(C)C)C(=O)NS(=O)(=O)C1CC1 [asunaprevir]
- inhibition of M^pro activity (words) (SARS-CoV-2 M^pro [5]): moderately inhibit

SMILES: COc1ccc2c(O[C@@H]3C[C@H]4C(=O)N[C@]5(C(=O)NS(=O)(=O)C6CC6)C[C@H]5/C=C\CCCCN(C)C(=O)[C@@H]4C3)cc(-c3nc(C(C)C)cs3)nc2c1C [SIM, simeprevir]
- inhibition of M^pro activity (words) (SARS-CoV-2 M^pro [5]): moderately inhibit; also recorded: inhibited both M^pro and PL^pro
- Relative M^pro Inhibition (SARS-CoV-2 M^pro [5]): moderate (moderate to an estimated IC50 in the range 20-50 μM)
- IC50 (SARS-CoV-2 [1]; [12]): 2.3 µM
- CC50 (in vitro [8]): > 50 µM
- inhibition of PL^pro protease activity (words) (SARS-CoV-2 PL^pro): did inhibit PL^pro protease activity
- Relative PL^pro Inhibition (SARS-CoV-2 PL^pro): strong (Strong inhibition corresponds to an estimated IC50 < about 20 μM)
- IC50 (SARS-CoV-2 [2]; [13]): 4.2 µM
- Synergy Score (SARS-CoV-2 [3]): +30.2
- interaction with remdesivir (additive or synergistic) (SARS-CoV-2 [3]): synergistic
- interaction with remdesivir (additive or synergistic) (SARS-CoV-2 [3]; listed as simeprevir): synergized with remdesivir
- CC50 (Vero E6 cells): 2.1 µM
- M^pro inhibition in the NMR assay (SARS-CoV-2 M^pro [7]): moderate inhibitors of M^pro
